Read-outs that look alike come from different tables or passages of the source.
Columns and labels:
[1] = target: T1, Tlp3 (Campylobacter jejuni, UniProt Q0P864); test: Glycan/small molecule arrays with Tlp3; settings: yes/no binding
Description: (§1) Glycan (>400 monosaccharides or complex glycans) and small molecule arrays containing amino acids and salts were performed as described previously by Day et al. ([67]). Briefly, 1 μg of purified recombinant protein was complexed with anti-His antibody (Cell Signaling Technology) and rabbit anti-mouse/goat anti-rabbit Alexa 555-IgG (Thermo Scientific) at a molar ratio of 1:0.5:0.25 and then incubated on the array for […] in phosphate-buffered saline (PBS). The array slides were scanned at 488/520 nm and analyzed using InnoScan 1100 with MAPIX software. All arrays were performed in triplicate with a total of 12 data points for each glycan tested; the complete data set and MIRAGE (i.e., minimum information regarding a glycomics experiment) results are shown in Tables S3 and S8.
(§2) Table S8 - Supplementary glycan microarray document based on M IRAGE guidelines. D O I:
(§3) Classification Guidelines
(§4) 1. Sample: Glycan Binding Sample
(§5) Origin: Helicobacter pylori SS1; produced as a recombinant His - tagged protein in E.
(§6) The preparation of Tlp2,3, and 4 is explained in the Materials and Methods section:
(§7) Expression and purification of the periplasmic domain of Tlp2,3, and 4.
(§8) Sample Sample is a His Tagged protein containing only the periplasmic receptor domain of the modifications full length Tlp2,3, and 4transmembrane protein.
(§9) Please see Materials and Methods: Tlps 2/3/4 bind to a range of ligands, including […]
(§10) Proteins were complexed with mouse anti- his antibody, with secondary and tertiary AlexaFluor555 antibodies (rabbit anti-mouse, goat anti-rabbit) at a molar ratio of 4:2:1.
(§11) The protein/antibody complex was incubated on ice for 10 mins prior to placing on the Assay protocol array. Arrays were performed with 1 µg of complexed protein incubated on the array for 20 min. Arrays were then washed 3 times in Array PBS (PBS + 2mM MgCl2 + 2mM CaCl2) then dried by centrifugation for 3 min at 300 x g . Scanning was performed us ing an Innopsys InnoScan 1100AL and analyzed using Mapix (Innopsys). Yes/no binding was determined by six positive replicate spots in three replicate experiments. Positive […]
(§12) Glycan Glycans in this study are listed in Table S2 and is a published library in doi:
(§13) Glycans were prepared in one of two ways for printing:
(§14) Glycan 1. Glycans (with IDs in number/letter format; e.g. 1A, 4C, 7K) were sourced modifications commercially from Dextra Laboratories, Elicityl and Carbosythn and were made into glycoamines using the protocol published in Day et al 2009 (doi:
(§15) Glycan arrays: We only use glycan arrays as a yes/no binding tool. Due to this we look only at binding that is unambiguously above background vs lack of binding above background. Average background + 3x standard deviation of the background of 20 sets of 4 spots of DMF:DMSO only spots is applied to determine if binding observed is […]
(§16) Only spots with values equal to or greater than this value were considered as binding from data of any tested slide. These values are slide […]
(§17) Data Small molecule arrays: We only use amino acid arrays as a yes/no binding tool. Due interpretation to this we look only at binding that is unambiguously above background vs lack of binding above background. Average background + 3x standard deviation of the background of 6 spots of PBS + 2% glycerol only spots is applied to determine if […]
(§18) Only spots with values equal to or greater than this value were considered as binding from data of any tested slide. These values are slide dependent. […]

[2] = target: T2, Tlp4 (Campylobacter jejuni, UniProt Q0PBP3); test: biochemical; type: binding
T2 sequence (Q0PBP3 entry or part of it): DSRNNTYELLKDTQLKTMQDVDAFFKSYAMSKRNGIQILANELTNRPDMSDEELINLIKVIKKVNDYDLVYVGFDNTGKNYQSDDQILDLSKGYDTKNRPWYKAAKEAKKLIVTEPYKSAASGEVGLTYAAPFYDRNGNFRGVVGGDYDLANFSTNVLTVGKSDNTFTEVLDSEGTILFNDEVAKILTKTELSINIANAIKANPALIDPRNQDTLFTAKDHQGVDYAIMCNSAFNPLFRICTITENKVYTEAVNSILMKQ
Description: (§19) His-tagged proteins (Tlp2, -3, and -4) were prepared as previously described ([11]) DNA segments encoding the periplasmic sensory domains (33 to 286 amino acids) of Tlp2 and (38 to 297 amino acids) of Tlp4 were amplified (see Table S7), ligated into pGEM-T Easy (Promega) and subcloned into pET-19b (Novagen) (see Table S6). Recombinant proteins were expressed in E. coli BL21(DE3) using 1 mM IPTG (isopropyl-β-D-thiogalactopyranoside) and purified using His-select-nickel chromatography as described previously ([8], [11]). The purity of the proteins was confirmed by SDS-PAGE and Western blot analysis with anti-His antibodies (Bio-Rad). Protein concentrations were determined using a NanoDrop spectrophotometer (Thermo Fisher).
(§20) Surface plasmon resonance (SPR) experiments were performed as described previously ([10], [11]) with the following modifications. Briefly, purified proteins were diluted to 0.15 μM in sodium acetate (pH 4.0) and immobilized onto an active flow cell of a CM5 sensor chip with a flow rate of 5 μL/min for 7 min of contact time using a standard amine coupling protocol. Immobilized protein levels for all three proteins ranged from 6028.3 to 9779.3 response units (RU) providing a minimum expected response maximum (RMax) between 20 and 50 RU for the small molecules tested. […] All ligands were prepared in PBS (pH 7.2) and serially diluted from 0.2 to 0.0125 mM. A 10-min dissociation period was allocated after the introduction of each analyte. SPR experiments were performed in single-cycle kinetics mode using the BIAcore S200 biosensor system (Cytiva) at 25°C in PBS (pH 7.2) at a flow rate of 30 μL/min. The equilibrium dissociation constant (KD) for each analyte was determined using BIAcore S200 Evaluation software with a report point 4 s after the injection stop to account for the bulk transfer of the small molecule against a large amount of immobilized protein (as shown in Fig. S5).

[3] = target: T3, Tlp2 (Campylobacter jejuni, UniProt Q0PBZ3); test: biochemical; type: binding
T3 sequence (Q0PBZ3 entry or part of it): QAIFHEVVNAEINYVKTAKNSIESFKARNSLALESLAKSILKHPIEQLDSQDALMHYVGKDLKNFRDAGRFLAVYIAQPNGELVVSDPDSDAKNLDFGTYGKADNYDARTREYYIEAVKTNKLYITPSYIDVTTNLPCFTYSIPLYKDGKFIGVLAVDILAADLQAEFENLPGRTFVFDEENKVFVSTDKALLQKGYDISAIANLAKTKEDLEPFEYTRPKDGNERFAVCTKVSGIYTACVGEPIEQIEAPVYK
Description: as §19, §20

[4] = tested on: WT Tlp3^LBD; test: SPR competition assay (A-B-A inject); type: binding, Campylobacter jejuni; settings: 15 seconds after injection-B; glucose 300 µM, fucose 300 μM, malic acid 200 μM
Description: . Competition A-B-A analyses determine the specificity of the potential ligand-binding site preferences of WT Tlp3^LBD. The bound protein is saturated with the first analyte (A), followed by the introduction of a second analyte (B); the assay is designed to show whether a cumulative response is observed after the second analyte (B) is added. A cumulative response indicates two independent binding sites, whereas the lack of a cumulative response indicates a single site where ligands compete for binding, i.e., when analyte A occupies a ligand binding site, analyte B cannot bind. […] All response data were normalized to a 100-Da molecular weight for each analyte, allowing direct comparison of the responses. Both actual RU values and theoretical values are recorded for comparison.
Figure S6. […] A) Injections are […]
at 300 μM for 60 seconds). Final responses units (RU) of injections are recorded (indicated by dashed vertical […]
81 at 15 s econds after injection- B and l fu cose […]
and fucose were compet ed was 4.4 RU ± 0.46. As this value sits be low 5 RU, it indicates direct competition for […]
Final respons es units (RU) of injections ar e re cor ded (indicated […]
As this value sits between
5.07- 13.5 RU, it indicates direct competition for the same site with glucos e replacing some of the bound malic acid during the 60 second injection- B.

[5] = target: T2, Tlp4; type: binding
Description: as §1, §2, §3, §4, §5, §6, §7, §8, §9, §10, §11, §12, §13, §14, §15, §16, §17, §18

[6] = target: T3, Tlp2; type: binding
Description: as §1, §2, §3, §4, §5, §6, §7, §8, §9, §10, §11, §12, §13, §14, §15, §16, §17, §18

[7] = target: T1, Tlp3; test: biochemical; type: binding
Description: as §19, with “The purity of the proteins was confirmed by SDS-PAGE and Western blot analysis with anti-His antibodies (Bio-Rad).” left out
Surface plasmon resonance (SPR) experiments were performed as described previously ([10], [11]) with the following modifications. […] All ligands were prepared in PBS (pH 7.2) and serially diluted from 0.2 to 0.0125 mM. A 10-min dissociation period was allocated after the introduction of each analyte. SPR experiments were performed in single-cycle kinetics mode using the BIAcore S200 biosensor system (Cytiva) at 25°C in PBS (pH 7.2) at a flow rate of 30 μL/min. The equilibrium dissociation constant (KD) for each analyte was determined using BIAcore S200 Evaluation software with a report point 4 s after the injection stop to account for the bulk transfer of the small molecule against a large amount of immobilized protein (as shown in Fig. S5).

[8] = target: Tlp3^LBD W151A (Campylobacter jejuni, UniProt Q0P864, W151A); test: biochemical
Tlp3^LBD W151A, sequence (Q0P864 41-290 W151A): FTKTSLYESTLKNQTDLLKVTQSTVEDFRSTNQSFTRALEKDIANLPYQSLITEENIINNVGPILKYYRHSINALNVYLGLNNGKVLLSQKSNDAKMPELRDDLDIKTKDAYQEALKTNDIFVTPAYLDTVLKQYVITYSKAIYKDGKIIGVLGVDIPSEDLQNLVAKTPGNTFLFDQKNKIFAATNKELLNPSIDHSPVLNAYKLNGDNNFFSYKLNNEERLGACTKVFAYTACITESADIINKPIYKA

[9] = target: Tlp3^LBD K149A (Campylobacter jejuni, UniProt Q0P864, K149A); test: biochemical
Tlp3^LBD K149A, sequence (Q0P864 41-290 K149A): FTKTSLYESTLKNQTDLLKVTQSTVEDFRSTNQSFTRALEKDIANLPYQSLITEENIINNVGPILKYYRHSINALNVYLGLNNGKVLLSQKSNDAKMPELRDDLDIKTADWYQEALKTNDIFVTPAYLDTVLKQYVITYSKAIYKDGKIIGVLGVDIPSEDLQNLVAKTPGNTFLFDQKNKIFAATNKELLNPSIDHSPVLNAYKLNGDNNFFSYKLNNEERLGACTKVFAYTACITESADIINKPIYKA

[10] = tested on: Δtlp2,3,4 triple mutant; type: cell-based; settings: compared with the other mutants
[11] = target: Tlp3^LBD D196A (Campylobacter jejuni, UniProt Q0P864, D196A); test: biochemical
Tlp3^LBD D196A, sequence (Q0P864 41-290 D196A): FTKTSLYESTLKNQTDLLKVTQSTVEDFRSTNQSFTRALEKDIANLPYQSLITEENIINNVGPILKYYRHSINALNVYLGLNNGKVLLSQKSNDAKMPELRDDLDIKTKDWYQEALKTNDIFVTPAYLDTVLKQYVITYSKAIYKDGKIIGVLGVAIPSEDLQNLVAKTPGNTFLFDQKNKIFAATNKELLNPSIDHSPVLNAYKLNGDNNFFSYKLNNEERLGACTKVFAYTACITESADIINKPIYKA

[12] = target: Tlp3^LBD D170A (Campylobacter jejuni, UniProt Q0P864); test: biochemical
Tlp3^LBD D170A, sequence (Q0P864 41-290 T170A): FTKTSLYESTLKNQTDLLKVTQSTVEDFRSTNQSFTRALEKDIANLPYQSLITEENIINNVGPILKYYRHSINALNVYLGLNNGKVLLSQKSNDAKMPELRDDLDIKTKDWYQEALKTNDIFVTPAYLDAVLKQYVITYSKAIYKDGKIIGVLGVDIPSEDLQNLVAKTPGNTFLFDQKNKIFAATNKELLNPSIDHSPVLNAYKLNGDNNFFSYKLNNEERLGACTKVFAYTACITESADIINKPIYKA

[13] = target: Tlp3^LBD D169A (Campylobacter jejuni, UniProt Q0P864, D169A); test: biochemical
Tlp3^LBD D169A, sequence (Q0P864 41-290 D169A): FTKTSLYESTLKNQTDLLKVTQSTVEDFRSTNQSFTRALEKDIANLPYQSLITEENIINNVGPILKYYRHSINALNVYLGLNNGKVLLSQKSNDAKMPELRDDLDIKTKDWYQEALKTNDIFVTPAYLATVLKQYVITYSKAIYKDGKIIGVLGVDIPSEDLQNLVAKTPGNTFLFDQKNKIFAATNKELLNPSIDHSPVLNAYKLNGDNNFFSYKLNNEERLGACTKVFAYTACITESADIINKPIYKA

[14] = SPR KD, mean ± SD, NB = no binding, read-out: Tlp4 Affinity
[15] = SPR KD, mean ± SD, NB = no binding, read-out: Tlp2 Affinity

T1 sequence (Q0P864 entry or part of it): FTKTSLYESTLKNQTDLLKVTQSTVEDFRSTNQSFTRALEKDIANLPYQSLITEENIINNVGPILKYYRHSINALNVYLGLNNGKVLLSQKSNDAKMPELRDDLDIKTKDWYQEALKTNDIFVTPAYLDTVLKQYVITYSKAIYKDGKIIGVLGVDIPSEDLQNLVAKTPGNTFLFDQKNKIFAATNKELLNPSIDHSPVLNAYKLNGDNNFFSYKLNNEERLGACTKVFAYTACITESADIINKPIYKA

Structure (SMILES)	binding to Tlp3 on glycan/small molecule array [1]	Kd [2, 14]	Kd [3, 15]	SPR response of single analyte [4]	binding to Tlp4 on glycan/small molecule array ([5]; yes/no binding)	binding to Tlp2 on glycan/small molecule array ([6]; yes/no binding)	further results
OC[C@H]1OC(O)[C@H](O)[C@@H](O)[C@@H]1O (stereo partly drawn) [Glucose]	interacted	18.3 ± 1.1 µM	18.1 ± 2.2 µM	5.07 RU	interacted	interacted	–
CC[C@H](C)[C@H](N)C(=O)O [Isoleucine]	–	> 200 µM	> 200 µM	–	–	–	–
O=C(O)CC(O)C(=O)O (stereo not drawn) [Malic acid]	–	> 10000 µM	> 10000 µM	13.5 RU	–	–	–
CSCC[C@H](N)C(=O)O [Methionine]	–	–	–	–	–	–	Kd ([7]; read-out: Tlp3 Affinity): > 200 µM; Kd [2]: 6 ± 4.7 µM; Kd [3]: 1.9 ± 1.2 µM; binding to Tlp4 on glycan/small molecule array [5]: bound; binding to Tlp2 on glycan/small molecule array [6]: bound
c1ncc2nc[nH]c2n1 [Purine]	bind specifically	1.2 ± 0.7 µM	5.4 ± 1.1 µM	–	bound	bound	Kd [8]: 36.1 ± 15.7 µM; Kd [7]: 37.2 ± 17.4 µM; Kd [9]: 41.9 ± 24 µM; migration toward ligand, Δtlp2,3,4 triple mutant [10]: greatest reduction in migration; Kd [11]: 35.8 ± 1.5 µM; Kd [12]: 20.6 ± 4 µM; Kd [13]: 15.7 ± 6.6 µM
N[C@@H](CO)C(=O)O [Serine]	–	14.3 ± 3.2 µM	6.9 ± 2.4 µM	–	bound	bound	Kd ([7]; SPR KD, mean ± SD, NB = no binding, read-out: Tlp3 Affinity): > 200 µM
